{"source": "patent US9522907B2", "about": "“Anticancer agent and process for the preparation thereof” (COUNCIL OF SCIENTIFIC & INDUSTRIAL RESEARCH, priority 2014, dated 2016)", "key": {"OVCAR-8": {"tested_on": "OVCAR-8", "experiment": "NCI in vitro cytotoxicity, OVCAR-8", "details": "Homo sapiens", "text": "(§3) For these compounds results are expressed as growth inhibition (GI50) values as per NCI protocol."}, "HL-60 (TB)": {"tested_on": "HL-60 (TB)", "experiment": "NCI in vitro cytotoxicity, HL-60 (TB)", "format": "cell-based", "details": "Homo sapiens, Leukemia"}, "MOLT-4": {"tested_on": "MOLT-4", "experiment": "NCI in vitro cytotoxicity, MOLT-4", "details": "Homo sapiens", "text": "as §3"}, "UACC-257": {"tested_on": "UACC-257", "experiment": "NCI in vitro cytotoxicity, UACC-257", "details": "Homo sapiens", "text": "as §3"}, "SK-OV-3": {"tested_on": "SK-OV-3", "experiment": "NCI in vitro cytotoxicity, SK-OV-3", "details": "Homo sapiens", "text": "as §3"}, "M14": {"tested_on": "M14", "experiment": "NCI in vitro cytotoxicity, M14", "details": "Homo sapiens", "text": "as §3"}, "KM12": {"tested_on": "KM12", "experiment": "NCI in vitro cytotoxicity, KM12", "details": "Homo sapiens", "text": "as §3"}, "HT29": {"tested_on": "HT29", "experiment": "NCI in vitro cytotoxicity, HT29", "details": "Homo sapiens, HT-29", "text": "as §3"}, "LOX IMVI": {"tested_on": "LOX IMVI", "experiment": "NCI in vitro cytotoxicity, LOX IMVI", "details": "Homo sapiens", "text": "as §3"}, "HOP-92": {"tested_on": "HOP-92", "experiment": "NCI in vitro cytotoxicity, HOP-92", "details": "Homo sapiens", "text": "as §3"}, "SK-MEL-28": {"tested_on": "SK-MEL-28", "experiment": "NCI in vitro cytotoxicity, SK-MEL-28", "details": "Homo sapiens", "text": "as §3"}, "HCT-15": {"tested_on": "HCT-15", "experiment": "NCI in vitro cytotoxicity, HCT-15", "details": "Homo sapiens", "text": "as §3"}, "SW-620": {"tested_on": "SW-620", "experiment": "NCI in vitro cytotoxicity, SW-620", "details": "Homo sapiens", "text": "as §3"}, "SN 12C": {"tested_on": "SN 12C", "experiment": "NCI in vitro cytotoxicity, SN 12C", "details": "Homo sapiens, SN12C", "text": "as §3"}, "MDA-MB-468": {"tested_on": "MDA-MB-468", "experiment": "NCI in vitro cytotoxicity, MDA-MB-468", "details": "Homo sapiens", "text": "as §3"}, "HOP-62": {"tested_on": "HOP-62", "experiment": "NCI in vitro cytotoxicity, HOP-62", "details": "Homo sapiens", "text": "as §3"}, "IGROV 1": {"tested_on": "IGROV 1", "experiment": "NCI in vitro cytotoxicity, IGROV 1", "details": "Homo sapiens", "text": "as §3"}, "HS 578T": {"tested_on": "HS 578T", "experiment": "NCI in vitro cytotoxicity, HS 578T", "details": "Homo sapiens", "text": "as §3"}, "OVCAR-3": {"tested_on": "OVCAR-3", "experiment": "NCI in vitro cytotoxicity, OVCAR-3", "details": "Homo sapiens", "text": "as §3"}, "EKVX": {"tested_on": "EKVX", "experiment": "NCI in vitro cytotoxicity, EKVX", "details": "Homo sapiens", "text": "as §3"}, "SR (leukemia cell line)": {"tested_on": "SR (leukemia cell line)", "experiment": "NCI in vitro cytotoxicity, SR", "details": "Homo sapiens", "text": "as §3"}, "CAKI-1": {"tested_on": "CAKI-1", "experiment": "NCI in vitro cytotoxicity, CAKI-1", "details": "Homo sapiens", "text": "as §3"}, "[1]": {"tested_on": "Melanoma cancer cell lines", "experiment": "cells", "format": "cell-based", "details": "Homo sapiens", "excerpt": "(§1) The mean graph midpoint values of Log10 GI50 as well as Log10 LC50 for the compounds 2i, 5i and Hoechst 33258 (NSC-322921) is listed in Table 2.\n(§2) Each cancer type represents the average of six to eight different cancer cell lines."}, "Renal cancer cell lines": {"tested_on": "Renal cancer cell lines", "experiment": "cells", "format": "cell-based", "details": "Homo sapiens", "excerpt": "as §1, §2"}, "Colon cancer cell lines": {"tested_on": "Colon cancer cell lines", "experiment": "cells", "format": "cell-based", "details": "Homo sapiens", "excerpt": "as §1, §2"}, "Breast cancer cell lines": {"tested_on": "Breast cancer cell lines", "experiment": "cells", "format": "cell-based", "details": "Homo sapiens", "excerpt": "as §1, §2"}, "CNS cancer cell lines": {"tested_on": "CNS cancer cell lines", "experiment": "cells", "format": "cell-based", "details": "Homo sapiens", "excerpt": "as §1, §2"}, "[2]": {"tested_on": "Prostate cancer cell lines", "experiment": "cells", "format": "cell-based", "details": "Homo sapiens", "excerpt": "as §1, §2"}, "[3]": {"tested_on": "Ovarian cancer cell lines", "experiment": "cells", "format": "cell-based", "details": "Homo sapiens", "excerpt": "as §1, §2"}, "[4]": {"tested_on": "Leukemia cancer cell lines", "experiment": "cells", "format": "cell-based", "details": "Homo sapiens", "excerpt": "as §1, §2"}, "[5]": {"tested_on": "Non-small-cell lung cancer cell lines", "experiment": "cells", "format": "cell-based", "details": "Homo sapiens", "excerpt": "as §1, §2"}, "NCI-H226": {"tested_on": "NCI-H226", "experiment": "NCI in vitro cytotoxicity, NCI-H226", "details": "Homo sapiens", "text": "as §3"}, "SF-268": {"tested_on": "SF-268", "experiment": "NCI in vitro cytotoxicity, SF-268", "details": "Homo sapiens", "text": "as §3"}, "A498": {"tested_on": "A498", "experiment": "NCI in vitro cytotoxicity, A498", "details": "Homo sapiens", "text": "as §3"}, "OVCAR-4": {"tested_on": "OVCAR-4", "experiment": "NCI in vitro cytotoxicity, OVCAR-4", "details": "Homo sapiens", "text": "as §3"}, "UACC-62": {"tested_on": "UACC-62", "experiment": "NCI in vitro cytotoxicity, UACC-62", "details": "Homo sapiens", "text": "as §3"}, "PC-3": {"tested_on": "PC-3", "experiment": "NCI in vitro cytotoxicity, PC-3", "details": "Homo sapiens", "text": "as §3"}, "DU-145": {"tested_on": "DU-145", "experiment": "NCI in vitro cytotoxicity, DU-145", "details": "Homo sapiens", "text": "as §3"}, "CCRF-CEM": {"tested_on": "CCRF-CEM", "experiment": "NCI in vitro cytotoxicity, CCRF-CEM", "details": "Homo sapiens", "text": "as §3"}, "A549/ATCC": {"tested_on": "A549/ATCC", "experiment": "NCI in vitro cytotoxicity, A549/ATCC", "details": "Homo sapiens", "text": "as §3"}, "HCT-116": {"tested_on": "HCT-116", "experiment": "NCI in vitro cytotoxicity, HCT-116", "details": "Homo sapiens", "text": "as §3"}, "[6]": {"details": "read-out: Log10 LC50 mean graph midpoint (MG_MID) (converted)"}}, "data": [{"smiles": "COc1ccc2[nH]c(-c3ccc(-c4noc(-c5cc(OC)c(OC)c(OC)c5)n4)cc3)nc2c1", "note": "[5i, 3-(4-(5-Methoxy-1H-benzo[d]imidazol-2-yl)phenyl)-5-(3,4,5-trimethoxyphenyl)-1,2,4-oxadiazole]", "values": [{"measurement": "GI50", "setting": "OVCAR-8", "result": 4.93, "unit": "µM"}, {"measurement": "GI50", "setting": "HL-60 (TB)", "result": 2.02, "unit": "µM"}, {"measurement": "GI50", "setting": "MOLT-4", "result": 5.29, "unit": "µM"}, {"measurement": "GI50", "setting": "UACC-257", "result": 17.1, "unit": "µM"}, {"measurement": "GI50", "setting": "SK-OV-3", "result": 25.3, "unit": "µM"}, {"measurement": "GI50", "setting": "M14", "result": 5.47, "unit": "µM"}, {"measurement": "GI50", "setting": "KM12", "result": 7.52, "unit": "µM"}, {"measurement": "GI50", "setting": "HT29", "result": 2.7, "unit": "µM"}, {"measurement": "GI50", "setting": "LOX IMVI", "result": 13.3, "unit": "µM"}, {"measurement": "GI50", "setting": "HOP-92", "result": 14.3, "unit": "µM"}, {"measurement": "GI50", "setting": "SK-MEL-28", "result": 9.59, "unit": "µM"}, {"measurement": "GI50", "setting": "HCT-15", "result": 1.49, "unit": "µM"}, {"measurement": "GI50", "setting": "SW-620", "result": 5.89, "unit": "µM"}, {"measurement": "GI50", "setting": "SN 12C", "result": 13.2, "unit": "µM"}, {"measurement": "GI50", "setting": "MDA-MB-468", "result": 6.54, "unit": "µM"}, {"measurement": "GI50", "setting": "HOP-62", "result": 4.44, "unit": "µM"}, {"measurement": "GI50", "setting": "IGROV 1", "result": 26.3, "unit": "µM"}, {"measurement": "GI50", "setting": "HS 578T", "result": 9.49, "unit": "µM"}, {"measurement": "GI50", "setting": "OVCAR-3", "result": 42.5, "unit": "µM"}, {"measurement": "GI50", "setting": "EKVX", "result": 26.2, "unit": "µM"}, {"measurement": "GI50", "setting": "SR (leukemia cell line)", "result": 0.71, "unit": "µM"}, {"measurement": "GI50", "setting": "CAKI-1", "result": 23.4, "unit": "µM"}, {"measurement": "LC50", "setting": "[1]; [6]", "result": 83.2, "unit": "µM"}, {"measurement": "GI50", "setting": "[1]; Melanoma, average of cell lines of the cancer type, read-out: Log10 GI50 mean graph midpoint (MG_MID) (converted)", "result": 7.59, "unit": "µM"}, {"measurement": "CC50", "setting": "Renal cancer cell lines; [6]", "result": 74.1, "unit": "µM"}, {"measurement": "GI50", "setting": "Renal cancer cell lines; Renal, average of cell lines of the cancer type, read-out: Log10 GI50 mean graph midpoint (MG_MID) (converted)", "result": 14.5, "unit": "µM"}, {"measurement": "LC50", "setting": "Colon cancer cell lines; [6]", "result": 85.1, "unit": "µM"}, {"measurement": "GI50", "setting": "Colon cancer cell lines; Colon, average of cell lines of the cancer type, read-out: Log10 GI50 mean graph midpoint (MG_MID) (converted)", "result": 4.79, "unit": "µM"}, {"measurement": "CC50", "setting": "Breast cancer cell lines; [6]", "result": 79.4, "unit": "µM"}, {"measurement": "GI50", "setting": "Breast cancer cell lines; Breast, average of cell lines of the cancer type, read-out: Log10 GI50 mean graph midpoint (MG_MID) (converted)", "result": 3.39, "unit": "µM"}, {"measurement": "CC50", "setting": "CNS cancer cell lines; [6]", "result": 44.7, "unit": "µM"}, {"measurement": "GI50", "setting": "CNS cancer cell lines; CNS, average of cell lines of the cancer type, read-out: Log10 GI50 mean graph midpoint (MG_MID) (converted)", "result": 6.31, "unit": "µM"}, {"measurement": "CC50", "setting": "[2]; [6]", "result": 91.2, "unit": "µM"}, {"measurement": "GI50", "setting": "[2]; Prostate, average of cell lines of the cancer type, read-out: Log10 GI50 mean graph midpoint (MG_MID) (converted)", "result": 14.1, "unit": "µM"}, {"measurement": "CC50", "setting": "[3]; [6]", "result": 67.6, "unit": "µM"}, {"measurement": "GI50", "setting": "[3]; Ovarian, average of cell lines of the cancer type, read-out: Log10 GI50 mean graph midpoint (MG_MID) (converted)", "result": 7.59, "unit": "µM"}, {"measurement": "LC50 (50% lethal concentration, NCI mean graph midpoint)", "setting": "[4]; [6]", "result": 100, "unit": "µM"}, {"measurement": "GI50", "setting": "[4]; Leukemia, average of cell lines of the cancer type, read-out: Log10 GI50 mean graph midpoint (MG_MID) (converted)", "result": 3.31, "unit": "µM"}, {"measurement": "LC50 (lethal concentration 50%)", "setting": "[5]; [6]", "result": 79.4, "unit": "µM"}, {"measurement": "GI50", "setting": "[5]; Non-small-cell lung, average of cell lines of the cancer type, read-out: Log10 GI50 mean graph midpoint (MG_MID) (converted)", "result": 8.71, "unit": "µM"}, {"measurement": "GI50", "setting": "NCI-H226", "result": 2.27, "unit": "µM"}, {"measurement": "GI50", "setting": "SF-268", "result": 7.13, "unit": "µM"}, {"measurement": "GI50", "setting": "A498", "result": 28.5, "unit": "µM"}, {"measurement": "GI50", "setting": "OVCAR-4", "result": 1.88, "unit": "µM"}, {"measurement": "GI50", "setting": "UACC-62", "result": 14, "unit": "µM"}, {"measurement": "GI50", "setting": "PC-3", "result": 240, "unit": "µM"}, {"measurement": "GI50", "setting": "DU-145", "result": 9.48, "unit": "µM"}, {"measurement": "GI50", "setting": "CCRF-CEM", "result": 2.2, "unit": "µM"}, {"measurement": "GI50", "setting": "A549/ATCC", "result": 5.65, "unit": "µM"}, {"measurement": "GI50", "setting": "HCT-116", "result": 1.9, "unit": "µM"}]}]}
